# Measured values published in US20260157376A1, “METHOD OF CONTROLLING, LIMITING OR PREVENTING OOMYCETES” (priority 2022, published 2026).
# Test system: Pythium ultimum
# Test: In vitro growth inhibition of Pythium ultimum in PDB nutrient broth, 96-well microtiter plate
# Format: cell-based
# Details: 24° C., 48 hours
molecule,measurement,setting,value
Inpyrfluxam [reference compound],Observed efficacy (%),20 ppm,0%
N.N.O=[PH](O)O [Diammonium phosphonate],Observed efficacy (%),500 ppm,50%
same,Observed efficacy (%),1000 ppm,70%
Monopotassium phosphite,Observed efficacy (%),125 ppm,20%
same,Observed efficacy (%),250 ppm,20%
same,Observed efficacy (%),500 ppm,20%
"COCC(=O)N(c1c(C)cccc1C)[C@H](C)C(=O)OC [Mefenoxam, reference compound]",Observed efficacy (%),0.007 ppm,0%
same,Observed efficacy (%),0.02 ppm,20%
same,Observed efficacy (%),0.06 ppm,50%
